What was measured:
mGluR3 [1] = biological target: T1, mGluR3 (Homo sapiens, UniProt Q14832); assay: decrease of forskolin-stimulated cAMP in cells expressing mGluR3
Description: The ability of compounds to function as agonists of glutamate at metabotropic glutamate receptors may be determined by measuring their ability to decrease forskolin-stimulated cAMP in cells expressing mGluR receptors.

mGluR3 [2] = biological target: T1, mGluR3; assay: [3H] LY341495 binding at mGluR3; design: expressed in transfected cells; conditions: Example 1: average result from several tests, read-out: Ki, reversal of [3H] LY341495 binding at mGluR3
Description: (D. D. Schoepp, et al., Neuropharmacol., 1996, 35, 1661-1672 and 1997, 36, 1-11).

animal model of anxiety = conditions: in vivo

T1 sequence (Q14832 23-879): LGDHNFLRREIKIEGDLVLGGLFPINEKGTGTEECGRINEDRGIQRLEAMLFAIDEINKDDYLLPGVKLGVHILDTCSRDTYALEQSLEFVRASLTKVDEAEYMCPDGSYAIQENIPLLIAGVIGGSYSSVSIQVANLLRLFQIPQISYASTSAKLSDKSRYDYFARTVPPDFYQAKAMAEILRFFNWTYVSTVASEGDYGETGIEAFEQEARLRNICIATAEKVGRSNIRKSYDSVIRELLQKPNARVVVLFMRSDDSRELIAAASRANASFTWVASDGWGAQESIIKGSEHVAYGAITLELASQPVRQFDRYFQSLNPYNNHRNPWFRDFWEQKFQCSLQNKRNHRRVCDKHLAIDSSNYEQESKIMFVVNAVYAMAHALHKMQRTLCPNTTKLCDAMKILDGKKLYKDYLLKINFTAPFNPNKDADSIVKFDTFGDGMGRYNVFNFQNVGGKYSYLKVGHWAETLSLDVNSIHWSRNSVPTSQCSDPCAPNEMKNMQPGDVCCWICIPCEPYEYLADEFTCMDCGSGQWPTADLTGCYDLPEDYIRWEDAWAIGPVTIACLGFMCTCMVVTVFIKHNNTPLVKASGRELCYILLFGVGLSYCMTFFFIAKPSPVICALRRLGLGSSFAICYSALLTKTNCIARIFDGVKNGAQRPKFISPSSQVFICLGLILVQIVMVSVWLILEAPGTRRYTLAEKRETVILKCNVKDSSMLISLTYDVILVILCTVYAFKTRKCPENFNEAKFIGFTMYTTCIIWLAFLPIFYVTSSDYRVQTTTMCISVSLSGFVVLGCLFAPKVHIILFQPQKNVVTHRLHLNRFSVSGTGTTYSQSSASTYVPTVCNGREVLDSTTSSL

Row | SMILES | EC50 (mGluR3 [1]) | Ki (mGluR3 [2]) | potency in an animal model of anxiety (animal model of anxiety) | melting point
1 | N[C@H](C(=O)O)[C@H]1[C@@H](CO)[C@@H]1C(=O)O (racemic) [Example 1, (2SR,1′SR,2′RS,3′RS)-2-(3′-hydroxymethyl-2′-carboxycyclopropyl)glycine] | 11.5 nM | 7.9 nM | highly potent | –
2 | N[C@H](C(=O)O)[C@H]1[C@@H](CS)[C@@H]1C(=O)O (racemic) [Example 3, (2SR,1′RS,2′RS,3′RS)-2-[3′-mercaptomethyl-2′-carboxycyclopropyl]glycine] | – | – | – | 200 to 202 °C
3 | N[C@H](C(=O)O)[C@H]1[C@@H](CSc2ccccc2)[C@@H]1C(=O)O (racemic) [Example 8, (2SR,1′RS,2′RS,3′RS)-2-[3′-(phenylthiomethyl)-2′-carboxycyclopropyl]glycine] | – | – | – | 201 °C
4 | N[C@H](C(=O)O)[C@H]1[C@@H](CO)[C@@H]1C(=O)O (single isomer, unassigned) [Example 22] | – | 5.1 nM | – | –

From US6498180B1, “Excitatory amino acid receptor modulators” (Eli Lilly and Company, priority 1999, dated 2002)
